Calls of active or inactive are those of the source. How the calls were made is not given here.

One may read the IC50 as the concentration that gives 50% inhibition.

For the test, the target named is Nuclear receptor coactivator 1 (Homo sapiens) (UniProt Q15788). Put plainly: inhibition of NCOA1 transcriptional coactivation in cells – cell-based, luciferase reporter, luminescence, dose response (AID 602235).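 Further: cells transfected with pGL4.31 reporter plus pBIND-SRC1 vector; potency is for inhibitors that lower SRC1 reporter luminescence.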 The note with it: cell-based SRC1 luciferase reporter. A general note: Reporter assays use an easily measured gene product as a stand-in for the process of interest.
Sequence of Nuclear receptor coactivator 1 (Homo sapiens) (Q15788 whole entry, looked up): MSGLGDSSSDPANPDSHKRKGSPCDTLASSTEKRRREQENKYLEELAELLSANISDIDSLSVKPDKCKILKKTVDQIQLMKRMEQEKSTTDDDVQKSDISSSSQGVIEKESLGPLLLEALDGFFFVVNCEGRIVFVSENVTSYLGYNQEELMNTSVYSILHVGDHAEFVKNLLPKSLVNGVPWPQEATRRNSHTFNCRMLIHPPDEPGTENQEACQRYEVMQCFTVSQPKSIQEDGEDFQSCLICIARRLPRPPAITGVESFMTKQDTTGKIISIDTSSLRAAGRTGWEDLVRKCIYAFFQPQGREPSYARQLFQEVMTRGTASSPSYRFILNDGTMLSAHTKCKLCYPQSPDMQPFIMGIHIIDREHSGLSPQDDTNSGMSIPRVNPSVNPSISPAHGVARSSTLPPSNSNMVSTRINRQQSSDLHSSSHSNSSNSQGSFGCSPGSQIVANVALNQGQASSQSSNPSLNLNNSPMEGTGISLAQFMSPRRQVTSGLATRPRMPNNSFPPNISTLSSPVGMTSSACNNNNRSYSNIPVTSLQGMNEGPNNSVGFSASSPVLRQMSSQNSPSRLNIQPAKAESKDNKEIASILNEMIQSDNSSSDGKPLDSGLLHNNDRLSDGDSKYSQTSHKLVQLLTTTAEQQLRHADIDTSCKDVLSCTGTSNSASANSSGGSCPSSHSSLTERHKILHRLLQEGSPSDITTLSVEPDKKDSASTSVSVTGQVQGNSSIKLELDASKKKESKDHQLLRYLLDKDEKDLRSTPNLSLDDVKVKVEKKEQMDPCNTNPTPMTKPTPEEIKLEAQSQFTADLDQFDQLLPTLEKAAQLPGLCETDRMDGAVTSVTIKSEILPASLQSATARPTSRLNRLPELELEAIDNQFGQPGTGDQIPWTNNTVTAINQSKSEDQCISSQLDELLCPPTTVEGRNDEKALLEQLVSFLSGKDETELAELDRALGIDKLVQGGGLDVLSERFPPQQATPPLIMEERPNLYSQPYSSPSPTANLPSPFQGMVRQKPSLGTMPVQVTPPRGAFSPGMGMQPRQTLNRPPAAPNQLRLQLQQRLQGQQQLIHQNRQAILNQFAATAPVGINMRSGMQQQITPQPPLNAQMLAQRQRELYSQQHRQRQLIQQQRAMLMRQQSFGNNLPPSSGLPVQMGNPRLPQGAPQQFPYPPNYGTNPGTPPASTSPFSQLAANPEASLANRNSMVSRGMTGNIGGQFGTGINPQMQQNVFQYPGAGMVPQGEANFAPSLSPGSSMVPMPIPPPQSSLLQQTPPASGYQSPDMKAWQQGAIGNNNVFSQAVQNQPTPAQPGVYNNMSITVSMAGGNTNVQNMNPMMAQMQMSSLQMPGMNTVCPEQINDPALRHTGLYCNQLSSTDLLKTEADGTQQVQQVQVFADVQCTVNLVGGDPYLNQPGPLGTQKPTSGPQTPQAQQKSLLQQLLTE
Consider `COc1cccc(C2=CC(=O)CC(C)(C)C2)c1`, for which the IC50 result was “inactive”. `O=C1CCC/C1=c1\s/c(=C/c2cccnc2)c(=O)n1-c1ccccc1`: the IC50 entry was “inactive”.

`O=C1c2cccc(OCc3ccc(F)cc3)c2CCN1Cc1ccccc1`: the IC50 was > 35.9 µM (inactive). To `O=C1CCC2S/C(=C/Nc3ccc(C(F)(F)F)cc3)C(=O)N12` (configuration not stated) belongs > 35.9 µM (inactive); to `Cc1sc2ncnc(N3CCC(C(=O)Nc4cc(S(C)(=O)=O)ccc4Cl)CC3)c2c1C`, “inactive”; to `CC1CC(C)C(=NNC(N)=O)C(C(O)CC2CCC(=O)NC2=O)C1` (configuration not stated), 8.57 µM. In the case of `COc1cccc2c1C(=N)c1c(O)c3c(c(O)c1C2=O)CC(O)(C(C)=O)CC3OC1CC(N)C(O)C(C)O1` (configuration not stated) it was > 35.9 µM (inactive); in that of `Nc1ccn(C2OC(CO)C(O)C2O)c(=O)n1` (configuration not stated), > 11.9 µM (inactive); in that of `CCOC(=O)CSc1cc(-c2ccccc2)nc2ncnn12`, > 35.9 µM (inactive). For `CN(Cc1cnc2nc(N)nc(N)c2n1)c1ccc(C(=O)NC(CCC(=O)O)C(=O)O)cc1` (configuration not stated), the IC50 was > 35.9 µM (inactive).

With `c1ccc(-c2nnc(-c3ccccn3)nc2NC2CCCCC2)cc1`, the IC50 is 5.22 µM. With `O=C(Nc1cccc(Cl)c1)Nc1nnc(-c2ccncc2)s1`, the 50% inhibitory concentration (IC50) is 8 µM. With `CN(C)c1ccc(/C=C/c2nc3ccccc3s2)cc1`, the IC50 result is “inactive”. Regarding `COc1ccc2ncn(-c3ccccc3)c2c1`, the 50% inhibitory concentration (IC50) is 8.16 µM. On to `NC(=O)c1cc(Sc2ccccc2)nc2ccccc12`, for which the IC50 is 7.5 µM. With `O=[N+]([O-])c1ccc(N(CCO)CCO)c2c1no[n+]2[O-]`, the IC50 entry is “inactive”. For `c1cc2c(cn1)cnc1cscc12`, the IC50 entry was “inactive”. With `CCOC(=O)c1c(NC(=O)C(C)N2CCN(C(=O)c3ccco3)CC2)sc2c1CCCC2` (configuration not stated), the IC50 result was “inactive”. For the compound `CCN(C(=O)c1cc(S(=O)(=O)N2CCCCC2)c[nH]1)c1ccc(OC)cc1`, the IC50 entry was “inactive”. Regarding `CC[C@@]1(O)C(=O)OCc2c1cc1n(c2=O)Cc2cc3c(NC(=O)CN)cccc3nc2-1`, the IC50 was > 35.9 µM (inactive). As to `CCOC(=O)CC(=O)CSc1nccc(-c2cccnc2)n1`, the IC50 entry was “inactive”.

Take `CN(C)c1ccc(Nc2ncnc3ccc(Br)cc23)cc1`: the concentration for half-maximal inhibition (IC50) is 9.96 µM. With `O=c1ccc2c(ccc3ncccc32)o1`, the IC50 result is “inactive”. As for `CN(C)C=Nc1c(C(=O)c2ccccc2)sc2nccc(N(C)C)c12`, the 50% inhibitory concentration (IC50) was 8.53 µM. `CCOc1cccc(/C=N/NC(=O)c2cccnc2)c1O`: the IC50 was > 12 µM (inactive). In the case of `C=CCc1ccccc1OCC(=O)N/N=C/c1ccc(OC(C)=O)cc1OC(C)=O` it was “inactive”; in that of `CNc1cccnc1C=NNC(N)=S`, 3.45 µM. As to `CC(=O)N1CCN(c2ccc(Oc3ncnc4sccc34)cc2)CC1`, the IC50 result was “inactive”. Regarding `O=C(CCCc1nc(-c2ccccc2Cl)no1)NC1CCCC1`, the IC50 entry was “inactive”. Consider `CCCCC(=O)OCC(=O)C1(O)Cc2c(O)c3c(c(O)c2C(OC2CC(NC(=O)C(F)(F)F)C(O)C(C)O2)C1)C(=O)c1c(OC)cccc1C3=O` (configuration not stated), for which the IC50 is > 35.9 µM (inactive). On to `O=C(CCl)N(c1ccccc1)C1CCS(=O)(=O)C1` (configuration not stated), for which the IC50 is 2.84 µM. Take `O=C(CCn1cnc(-c2ccccc2)c1-c1ccccc1)N/N=C/c1ccccc1O`: the IC50 entry was “inactive”. On to `CCN1CCN(C(=S)c2ccc(-c3ccccc3)cc2)CC1`, for which the IC50 was > 35.9 µM (inactive). For `Cc1ccc(OCC(=O)c2cc(C)n(-c3ccccc3)c2C)c([N+](=O)[O-])n1`, the IC50 result is “inactive”. On to `C=CCn1c(O)c(C(C)=NCc2cc(OC)cc(OC)c2)c(=O)[nH]c1=O`, for which the IC50 result was “inactive”. For the compound `Oc1ccc(C=NNc2ccccn2)c(O)c1`, the IC50 result is “inactive”. Consider `CCN(c1ccccc1)S(=O)(=O)c1cc(C(=O)Nc2ccc(Br)cc2)ccc1F`, for which the IC50 is > 12 µM (inactive).

The values above are taken from PubChem BioAssay AID602235 (The Scripps Research Institute Molecular Screening Center, 2012).
